Assay results taken from patent US4758557A, “Cephalosporin derivatives and bactericides containing the same” (Meiji Seika Kaisha, Ltd., priority 1985, dated 1988).
In brackets after ≈: the same amount, converted by molar mass. Like-named read-outs stand apart in the source and are kept apart here.

Experiments:
Assay in all cases: MIC in agar plate culture-dilution assay
Format in all cases: cell-based
[1] = test system: Bacillus subtilis ATCC 6633; settings: ATCC6633
From the text: (§1) The compounds of the formula (I) and salts thereof of the present invention are new, and have high and broad antibacterial activity capable of inhibiting the growth of pathogenic microorganisms of a broad range including gram-positive and gram-negative bacteria. In order to show the usability of the compounds of the formula (I), the antibacterial activity of some typical compounds of the formula (I) was actually measured, and the results are given in the following Table-1.
(§2) MIC in agar plate culture-dilution assay (Y/ml)

[2] = test system: Citrobacter freundii GN-346; settings: GN346
From the text: as §1, §2

[3] = test system: Enterobacter cloacae GN-7471; settings: GN7471
From the text: as §1, §2

[4] = test system: Escherichia coli NIHJ JC-2; settings: NIHJJC2
From the text: as §1, §2

[5] = test system: Klebsiella pneumoniae GN-69; settings: GN69
From the text: as §1, §2

Proteus rettgeri GN-624 = settings: Providencia rettgeri, GN624
From the text: as §1, §2

Proteus vulgaris GN-76 = settings: GN76
From the text: as §1, §2

[6] = test system: Pseudomonas aeruginosa E-2; settings: E2
From the text: as §1, §2

[7] = test system: Pseudomonas aeruginosa IAM-1007; settings: IAM1007
From the text: as §1, §2

[8] = test system: Pseudomonas aeruginosa M-0148; settings: M0148
From the text: as §1, §2

[9] = test system: Pseudomonas maltophilia M-0627; settings: Stenotrophomonas maltophilia, M0627
From the text: as §1, §2

[10] = test system: Serratia marcescens No. 1
From the text: as §1, §2

[11] = test system: Staphylococcus aureus 209P JC-1
From the text: as §1, §2

[12] = test system: Staphylococcus aureus Smith (1)
From the text: as §1, §2

[13] = Bacillus subtilis ATCC 6633, agar plate culture-dilution, read-out: MIC
[14] = Citrobacter freundii GN-346, agar plate culture-dilution, read-out: MIC
[15] = Enterobacter cloacae GN-7471, agar plate culture-dilution, read-out: MIC
[16] = Klebsiella pneumoniae GN-69, agar plate culture-dilution, read-out: MIC
[17] = Proteus rettgeri GN-624, agar plate culture-dilution, read-out: MIC
[18] = Proteus vulgaris GN-76, agar plate culture-dilution, read-out: MIC
[19] = Pseudomonas aeruginosa E-2, agar plate culture-dilution, read-out: MIC
[20] = Pseudomonas aeruginosa IAM-1007, agar plate culture-dilution, read-out: MIC
[21] = Pseudomonas aeruginosa M-0148, agar plate culture-dilution, read-out: MIC
[22] = Pseudomonas maltophilia M-0627, agar plate culture-dilution, read-out: MIC
[23] = Serratia marcescens No. 1, agar plate culture-dilution, read-out: MIC
[24] = Staphylococcus aureus 209P JC-1, agar plate culture-dilution, read-out: MIC
[25] = Staphylococcus aureus Smith (1), agar plate culture-dilution, read-out: MIC

Structure (SMILES)	MIC [1, 13]	MIC [2, 14]	MIC [3, 15]	MIC [4]	MIC [5, 16]	MIC (Proteus rettgeri GN-624; [17])	MIC (Proteus vulgaris GN-76; [18])	MIC [6, 19]	MIC [7, 20]	MIC [8, 21]	MIC [9, 22]	MIC [10, 23]	MIC [11, 24]	MIC [12, 25]	other results
C[n+]1ccc(SCC2=C(C(=O)[O-])N3C(=O)[C@@H](NC(=O)C(NC(=O)c4cc(=O)c(O)cn4O)c4csc(N)n4)[C@H]3SC2)c2c1CCC2 (stereo partly drawn) [Example 14, (6R,7R)7-[(RS)2-(2-Aminothiazol-4yl)-2-(1,5-dihydroxy-4-pyridone-2-carboxamido)acetamido]-3-(2,3-cyclopenteno-1-methylpyridinium-4-yl)-thiomethyl-ceph-3-em-4-carboxylate]	6.25 µg/mL (≈ 9.11 µM)	0.1 µg/mL (≈ 0.146 µM)	0.78 µg/mL (≈ 1.14 µM)	0.05 µg/mL (≈ 0.0729 µM)	< 0.025 µg/mL	0.1 µg/mL (≈ 0.146 µM)	0.1 µg/mL (≈ 0.146 µM)	< 0.025 µg/mL	< 0.025 µg/mL	0.2 µg/mL (≈ 0.292 µM)	6.25 µg/mL (≈ 9.11 µM)	0.1 µg/mL (≈ 0.146 µM)	1.56 µg/mL (≈ 2.27 µM)	1.56 µg/mL (≈ 2.27 µM)	–
Nc1nc(C(NC(=O)c2cc(=O)c(O)cn2O)C(=O)N[C@@H]2C(=O)N3C(C(=O)[O-])=C(CSc4cc[n+](CCO)cc4)CS[C@H]23)cs1 (stereo partly drawn) [Example 5, (6R,7R)7-[(RS)2-(2-Aminothiazol-4-yl)-2-(1,5-dihydroxy-4-pyridone-2-carboxamido)acetamido]-3-[1-(2-hydoroxyethyl)pyridinium-4-yl]thiomethyl-ceph-3-em-4-carboxylate]	3.13 µg/mL (≈ 4.63 µM)	0.78 µg/mL (≈ 1.15 µM)	1.56 µg/mL (≈ 2.31 µM)	0.05 µg/mL (≈ 0.074 µM)	0.05 µg/mL (≈ 0.074 µM)	0.1 µg/mL (≈ 0.148 µM)	0.39 µg/mL (≈ 0.577 µM)	0.05 µg/mL (≈ 0.074 µM)	0.1 µg/mL (≈ 0.148 µM)	0.78 µg/mL (≈ 1.15 µM)	–	0.2 µg/mL (≈ 0.296 µM)	1.56 µg/mL (≈ 2.31 µM)	3.13 µg/mL (≈ 4.63 µM)	–
C[n+]1cccc(SCC2=C(C(=O)[O-])N3C(=O)[C@@H](NC(=O)C(NC(=O)c4cc(=O)c(O)cn4O)c4csc(N)n4)[C@H]3SC2)c1 (stereo partly drawn) [Example 4, (6R,7R)7-[(RS)2-(2-Aminothiazol-4-yl)-2-(1,5-dihydroxy-4-pyridone-2-carboxamido)acetamido]-3-(1-methylpyridinium-3-yl)thiomethyl-ceph-3-em-4-carboxylate]	12.5 µg/mL (≈ 19.4 µM)	6.25 µg/mL (≈ 9.68 µM)	3.13 µg/mL (≈ 4.85 µM)	0.1 µg/mL (≈ 0.155 µM)	0.1 µg/mL (≈ 0.155 µM)	0.2 µg/mL (≈ 0.31 µM)	0.39 µg/mL (≈ 0.604 µM)	0.1 µg/mL (≈ 0.155 µM)	0.2 µg/mL (≈ 0.31 µM)	0.39 µg/mL (≈ 0.604 µM)	–	0.2 µg/mL (≈ 0.31 µM)	3.13 µg/mL (≈ 4.85 µM)	3.13 µg/mL (≈ 4.85 µM)	–
Nc1nc(C(NC(=O)c2cc(=O)c(O)cn2O)C(=O)N[C@@H]2C(=O)N3C(C(=O)O)=C(CSc4nc5ccccc5s4)CS[C@H]23)cs1 (stereo partly drawn) [Example 26, (6R,7R)7-[(RS)2-(2-Aminothiazol-4-yl)-2-(1,5-dihydroxy-4-pyridone-2-carboxamido)acetamido]-3-(benzothiazol-2-yl)thiomethyl-ceph-3-em-4-carboxylic acid]	3.13 µg/mL (≈ 4.55 µM)	0.39 µg/mL (≈ 0.567 µM)	1.56 µg/mL (≈ 2.27 µM)	0.1 µg/mL (≈ 0.145 µM)	0.05 µg/mL (≈ 0.0727 µM)	3.13 µg/mL (≈ 4.55 µM)	0.2 µg/mL (≈ 0.291 µM)	0.05 µg/mL (≈ 0.0727 µM)	0.2 µg/mL (≈ 0.291 µM)	0.2 µg/mL (≈ 0.291 µM)	3.13 µg/mL (≈ 4.55 µM)	0.78 µg/mL (≈ 1.13 µM)	3.13 µg/mL (≈ 4.55 µM)	3.13 µg/mL (≈ 4.55 µM)	–
CC(C)(O/N=C(\C(=O)N[C@@H]1C(=O)N2C(C(=O)[O-])=C(C[n+]3ccccc3)CS[C@H]12)c1csc(N)n1)C(=O)O [B, ceftazidime, reference compound]	–	–	–	0.2 µg/mL (≈ 0.366 µM)	–	–	–	–	–	–	–	–	–	–	MIC ([1]; Bacillus subtilis): 6.25 µg/mL (≈ 11.4 µM); MIC ([2]; Citrobacter freundii): 0.78 µg/mL (≈ 1.43 µM); MIC ([3]; Enterobacter cloacae): 3.13 µg/mL (≈ 5.73 µM); MIC ([5]; Klebsiella pneumoniae): 0.1 µg/mL (≈ 0.183 µM); MIC (Proteus rettgeri GN-624): 0.39 µg/mL (≈ 0.714 µM); MIC (Proteus vulgaris GN-76; Proteus vulgaris): 0.05 µg/mL (≈ 0.0915 µM); MIC ([6]; Pseudomonas aeruginosa): 1.56 µg/mL (≈ 2.85 µM); MIC ([7]; Pseudomonas aeruginosa): 1.56 µg/mL (≈ 2.85 µM); MIC ([8]; Pseudomonas aeruginosa): 3.13 µg/mL (≈ 5.73 µM); MIC [9]: 50 µg/mL (≈ 91.5 µM); MIC ([10]; Serratia marcescens, NO.1): < 0.025 µg/mL; MIC ([11]; Staphylococcus aureus, 209P): 3.13 µg/mL (≈ 5.73 µM); MIC ([12]; Staphylococcus aureus): 3.13 µg/mL (≈ 5.73 µM)
Nc1nc(C(NC(=O)c2cc(=O)c(O)cn2O)C(=O)N[C@@H]2C(=O)N3C(C(=O)[O-])=C(CSc4cc[n+](C5CC5)cc4)CS[C@H]23)cs1 (stereo partly drawn) [Example 8, (6R,7R)7-[(RS)2-(2-Aminothiazol-4-yl)-2-(1,5-dihydroxy-4-pyridone-2-carboxamido)acetamido]-3-(1-cycloproylpyridinium-4-yl)thiomethyl-ceph-3-em-4-carboxylate]	3.13 µg/mL (≈ 4.66 µM)	0.78 µg/mL (≈ 1.16 µM)	1.56 µg/mL (≈ 2.32 µM)	0.05 µg/mL (≈ 0.0744 µM)	0.05 µg/mL (≈ 0.0744 µM)	0.1 µg/mL (≈ 0.149 µM)	0.2 µg/mL (≈ 0.298 µM)	0.1 µg/mL (≈ 0.149 µM)	0.2 µg/mL (≈ 0.298 µM)	1.56 µg/mL (≈ 2.32 µM)	–	0.2 µg/mL (≈ 0.298 µM)	1.56 µg/mL (≈ 2.32 µM)	1.56 µg/mL (≈ 2.32 µM)	–
Cn1c(SCC2=C(C(=O)O)N3C(=O)[C@@H](NC(=O)C(NC(=O)c4cc(=O)c(O)cn4O)c4csc(N)n4)[C@H]3SC2)nnc(O)c1=O (stereo partly drawn) [Example 22, (6R,7R)7-[(RS)2-(2-Aminothaizol-4-yl)-2-(1,5-dihydroxy-4-pyridone-2-carboxamido)acetamido]-3-(4,5-dihydro-4-methyl-5-oxo-6-hydroxy-1,2,4-triazin-3-yl)thiomethyl-ceph-3-em-4-carboxylic acid]	3.13 µg/mL (≈ 4.61 µM)	0.39 µg/mL (≈ 0.574 µM)	0.78 µg/mL (≈ 1.15 µM)	0.05 µg/mL (≈ 0.0736 µM)	0.05 µg/mL (≈ 0.0736 µM)	0.2 µg/mL (≈ 0.294 µM)	0.1 µg/mL (≈ 0.147 µM)	0.1 µg/mL (≈ 0.147 µM)	0.39 µg/mL (≈ 0.574 µM)	0.39 µg/mL (≈ 0.574 µM)	1.56 µg/mL (≈ 2.3 µM)	0.2 µg/mL (≈ 0.294 µM)	3.13 µg/mL (≈ 4.61 µM)	3.13 µg/mL (≈ 4.61 µM)	–
Nc1nc(C(NC(=O)c2cc(=O)c(O)cn2O)C(=O)N[C@@H]2C(=O)N3C(C(=O)O)=C(CSc4ccnc5c4CCC5)CS[C@H]23)cs1 (some centres unmarked) [Example 15]	3.13 µg/mL (≈ 4.66 µM)	0.2 µg/mL (≈ 0.298 µM)	0.78 µg/mL (≈ 1.16 µM)	0.1 µg/mL (≈ 0.149 µM)	0.05 µg/mL (≈ 0.0744 µM)	0.2 µg/mL (≈ 0.298 µM)	0.1 µg/mL (≈ 0.149 µM)	< 0.025 µg/mL	0.2 µg/mL (≈ 0.298 µM)	0.2 µg/mL (≈ 0.298 µM)	0.78 µg/mL (≈ 1.16 µM)	0.39 µg/mL (≈ 0.581 µM)	1.56 µg/mL (≈ 2.32 µM)	3.13 µg/mL (≈ 4.66 µM)	–
NC(=O)C[n+]1ccc(SCC2=C(C(=O)[O-])N3C(=O)[C@@H](NC(=O)C(NC(=O)c4cc(=O)c(O)cn4O)c4csc(N)n4)[C@H]3SC2)cc1 (stereo partly drawn) [Example 6, (6R,7R)7-[(RS)2-(2-Aminothiazol-4-yl)-2-(1,5-dihydroxy-4-pyridone-2-carboxamido)acetamido]-3-(1-carbamoylmethylpyridinium-4-yl)thiomethyl-ceph-3-em-4-carboxylate]	3.13 µg/mL (≈ 4.54 µM)	1.56 µg/mL (≈ 2.27 µM)	1.56 µg/mL (≈ 2.27 µM)	0.05 µg/mL (≈ 0.0726 µM)	0.1 µg/mL (≈ 0.145 µM)	0.2 µg/mL (≈ 0.29 µM)	0.2 µg/mL (≈ 0.29 µM)	0.05 µg/mL (≈ 0.0726 µM)	0.1 µg/mL (≈ 0.145 µM)	0.78 µg/mL (≈ 1.13 µM)	–	0.2 µg/mL (≈ 0.29 µM)	1.56 µg/mL (≈ 2.27 µM)	3.13 µg/mL (≈ 4.54 µM)	–
